In ChEMBL document CHEMBL3045446, “In vitro antimicrobial and antimycobacterial activity of some chalcones and their derivatives” (2013):
In brackets after ≈: the same amount, converted by molar mass.

Columns and labels:
Format in all cases: functional
Proteus vulgaris [1] = test: Antimicrobial activity against Proteus vulgaris MTCC 1771 assessed as diameter of growth inhibition zone after 24 hr
Bacillus cereus [2] = test: Antimicrobial activity against Bacillus cereus MTCC 430 assessed as diameter of growth inhibition zone after 24 hr
Staphylococcus aureus [3] = test: Antimicrobial activity against Staphylococcus aureus MTCC 96 assessed as diameter of growth inhibition zone after 24 hr
Candida albicans [4] = test: Antimicrobial activity against Candida albicans MTCC 183 assessed as growth inhibition after 48 hr by agar streak dilution method; settings: MTCC 183, 48 h
Salmonella typhi [5] = test: Antimicrobial activity against Salmonella enterica subsp. enterica serovar Typhi MTCC 733 assessed as growth inhibition after 24 hr by agar streak dilution method; settings: MTCC 733, 24 h
Proteus vulgaris [6] = test: Antimicrobial activity against Proteus vulgaris MTCC 1771 assessed as growth inhibition after 24 hr by agar streak dilution method; settings: MTCC 1771, 24 h
Bacillus cereus [7] = test: Antimicrobial activity against Bacillus cereus MTCC 430 assessed as growth inhibition after 24 hr by agar streak dilution method; settings: MTCC 430, 24 h
Aspergillus niger [8] = test: Antimicrobial activity against Aspergillus niger MTCC 282 assessed as growth inhibition after 48 hr by agar streak dilution method; settings: MTCC 282, 48 h
Shigella flexneri [9] = test: Antimicrobial activity against Shigella flexneri MTCC1457 assessed as diameter of growth inhibition zone after 24 hr
Candida albicans [10] = test: Antimicrobial activity against Candida albicans MTCC 183 assessed as diameter of growth inhibition zone after 48 hr
Aspergillus niger [11] = test: Antimicrobial activity against Aspergillus niger MTCC 282 assessed as diameter of growth inhibition zone after 48 hr
Klebsiella pneumoniae [12] = test: Antimicrobial activity against Klebsiella pneumoniae MTCC 109 assessed as diameter of growth inhibition zone after 24 hr
Aspergillus fumigatus [13] = test: Antimicrobial activity against Aspergillus fumigatus MTCC 343 assessed as growth inhibition after 48 hr by agar streak dilution method; settings: MTCC 343, 48 h
Aspergillus clavatus [14] = test: Antimicrobial activity against Aspergillus clavatus MTCC 1323 assessed as growth inhibition after 48 hr by agar streak dilution method; settings: MTCC 1323, 48 h
[15] = tested on: Mycobacterium tuberculosis; test: Antituberculosis activity against Mycobacterium tuberculosis H37Rv assessed as growth inhibition after 12 to 28 days by L-J MIC method; settings: for MIC: Mycobacterium tuberculosis, H37Rv
Klebsiella pneumoniae [16] = test: Antimicrobial activity against Klebsiella pneumoniae MTCC 109 assessed as growth inhibition after 24 hr by agar streak dilution method; settings: MTCC 109, 24 h
Aspergillus clavatus [17] = test: Antimicrobial activity against Aspergillus clavatus MTCC 1323 assessed as diameter of growth inhibition zone after 48 hr
Escherichia coli [18] = test: Antimicrobial activity against Escherichia coli MTCC 739 assessed as diameter of growth inhibition zone after 24 hr
Staphylococcus aureus [19] = test: Antimicrobial activity against Staphylococcus aureus MTCC 96 assessed as growth inhibition after 24 hr by agar streak dilution method; settings: MTCC 96, 24 h
Salmonella typhi [20] = test: Antimicrobial activity against Salmonella enterica subsp. enterica serovar Typhi MTCC 733 assessed as diameter of growth inhibition zone after 24 hr
Pseudomonas aeruginosa [21] = test: Antimicrobial activity against Pseudomonas aeruginosa MTCC 741 assessed as diameter of growth inhibition zone after 24 hr
Escherichia coli [22] = test: Antimicrobial activity against Escherichia coli MTCC 739 assessed as growth inhibition after 24 hr by agar streak dilution method; settings: MTCC 739, 24 h
Aspergillus fumigatus [23] = test: Antimicrobial activity against Aspergillus fumigatus MTCC 343 assessed as diameter of growth inhibition zone after 48 hr
Shigella flexneri [24] = test: Antimicrobial activity against Shigella flexneri MTCC1457 assessed as growth inhibition after 24 hr by agar streak dilution method; settings: MTCC1457, 24 h
Pseudomonas aeruginosa [25] = test: Antimicrobial activity against Pseudomonas aeruginosa MTCC 741 assessed as growth inhibition after 24 hr by agar streak dilution method; settings: MTCC 741, 24 h

| Compound | diameter of the inhibition zone (DIZ) (Proteus vulgaris [1]) | diameter of the inhibition zone (DIZ) (Bacillus cereus [2]) | diameter of the inhibition zone (DIZ) (Staphylococcus aureus [3]) | MIC (Candida albicans [4]) | MIC (Salmonella typhi [5]) | MIC (Proteus vulgaris [6]) | MIC (Bacillus cereus [7]) | MIC (Aspergillus niger [8]) | diameter of the inhibition zone (DIZ) (Shigella flexneri [9]) | diameter of the inhibition zone (DIZ) (Candida albicans [10]) | diameter of the inhibition zone (DIZ) (Aspergillus niger [11]) | diameter of the inhibition zone (DIZ) (Klebsiella pneumoniae [12]) | MIC (Aspergillus fumigatus [13]) | MIC (Aspergillus clavatus [14]) | growth inhibition (GI) [15] | MIC [15] | MIC (Klebsiella pneumoniae [16]) | diameter of the inhibition zone (DIZ) (Aspergillus clavatus [17]) | diameter of the inhibition zone (DIZ) (Escherichia coli [18]) | MIC (Staphylococcus aureus [19]) | also measured |
| --- | --- | --- | --- | --- | --- | --- | --- | --- | --- | --- | --- | --- | --- | --- | --- | --- | --- | --- | --- | --- | --- |
| COc1ccc(C2CC(c3ccc(Nc4cc(=O)oc5ccccc45)cc3)=NN2C(C)=O)cc1OC (centres undefined) | 20 mm | 18 mm | 20 mm | 25 µg/mL (≈ 51.7 µM) | 25 µg/mL (≈ 51.7 µM) | 50 µg/mL (≈ 103 µM) | 50 µg/mL (≈ 103 µM) | 25 µg/mL (≈ 51.7 µM) | 23 mm | 22 mm | 23 mm | 22 mm | 50 µg/mL (≈ 103 µM) | 50 µg/mL (≈ 103 µM) | 98% | 100 µg/mL (≈ 207 µM) | 25 µg/mL (≈ 51.7 µM) | 20 mm | 21 mm | 25 µg/mL (≈ 51.7 µM) | diameter of the inhibition zone (DIZ) (Salmonella typhi [20]): 21 mm; diameter of the inhibition zone (DIZ) (Pseudomonas aeruginosa [21]): 20 mm; MIC (Escherichia coli [22]): 25 µg/mL (≈ 51.7 µM); diameter of the inhibition zone (DIZ) (Aspergillus fumigatus [23]): 19 mm; MIC (Shigella flexneri [24]): 12.5 µg/mL (≈ 25.9 µM); MIC (Pseudomonas aeruginosa [25]): 50 µg/mL (≈ 103 µM) |
| COc1ccc(-c2cc(-c3ccc(Nc4cc(=O)oc5ccccc45)cc3)nc(N)c2C#N)cc1 | 26 mm | 27 mm | 27 mm | 12.5 µg/mL (≈ 27.1 µM) | 12.5 µg/mL (≈ 27.1 µM) | 6.25 µg/mL (≈ 13.6 µM) | 6.25 µg/mL (≈ 13.6 µM) | 12.5 µg/mL (≈ 27.1 µM) | 24 mm | 25 mm | 25 mm | 22 mm | 12.5 µg/mL (≈ 27.1 µM) | 6.25 µg/mL (≈ 13.6 µM) | 96% | 62.5 µg/mL (≈ 136 µM) | 12.5 µg/mL (≈ 27.1 µM) | 25 mm | 28 mm | 6.25 µg/mL (≈ 13.6 µM) | diameter of the inhibition zone (DIZ) (Salmonella typhi [20]): 22 mm; diameter of the inhibition zone (DIZ) (Pseudomonas aeruginosa [21]): 25 mm; MIC (Escherichia coli [22]): 3.12 µg/mL (≈ 6.78 µM); diameter of the inhibition zone (DIZ) (Aspergillus fumigatus [23]): 21 mm; MIC (Shigella flexneri [24]): 12.5 µg/mL (≈ 27.1 µM); MIC (Pseudomonas aeruginosa [25]): 6.25 µg/mL (≈ 13.6 µM) |
| Nc1nc(-c2ccc(F)cc2)cc(-c2ccc(Nc3cc(=O)oc4ccccc34)cc2)n1 | 25 mm | 23 mm | 24 mm | 25 µg/mL (≈ 58.9 µM) | 12.5 µg/mL (≈ 29.5 µM) | 6.25 µg/mL (≈ 14.7 µM) | 12.5 µg/mL (≈ 29.5 µM) | 12.5 µg/mL (≈ 29.5 µM) | 21 mm | 20 mm | 22 mm | 28 mm | 6.25 µg/mL (≈ 14.7 µM) | 6.25 µg/mL (≈ 14.7 µM) | 99% | 62.5 µg/mL (≈ 147 µM) | 3.12 µg/mL (≈ 7.35 µM) | 26 mm | 25 mm | 12.5 µg/mL (≈ 29.5 µM) | diameter of the inhibition zone (DIZ) (Salmonella typhi [20]): 23 mm; diameter of the inhibition zone (DIZ) (Pseudomonas aeruginosa [21]): 24 mm; MIC (Escherichia coli [22]): 6.25 µg/mL (≈ 14.7 µM); diameter of the inhibition zone (DIZ) (Aspergillus fumigatus [23]): 27 mm; MIC (Shigella flexneri [24]): 12.5 µg/mL (≈ 29.5 µM); MIC (Pseudomonas aeruginosa [25]): 12.5 µg/mL (≈ 29.5 µM) |
| N#Cc1c(-c2ccc(F)cc2)cc(-c2ccc(Nc3cc(=O)oc4ccccc34)cc2)nc1N | 29 mm | 28 mm | 25 mm | 12.5 µg/mL (≈ 27.9 µM) | 6.25 µg/mL (≈ 13.9 µM) | 3.12 µg/mL (≈ 6.96 µM) | 3.12 µg/mL (≈ 6.96 µM) | 12.5 µg/mL (≈ 27.9 µM) | 24 mm | 22 mm | 23 mm | 28 mm | 3.12 µg/mL (≈ 6.96 µM) | 6.25 µg/mL (≈ 13.9 µM) | 97% | 50 µg/mL (≈ 111 µM) | 3.12 µg/mL (≈ 6.96 µM) | 28 mm | 27 mm | 6.25 µg/mL (≈ 13.9 µM) | diameter of the inhibition zone (DIZ) (Salmonella typhi [20]): 26 mm; diameter of the inhibition zone (DIZ) (Pseudomonas aeruginosa [21]): 29 mm; MIC (Escherichia coli [22]): 3.12 µg/mL (≈ 6.96 µM); diameter of the inhibition zone (DIZ) (Aspergillus fumigatus [23]): 28 mm; MIC (Shigella flexneri [24]): 12.5 µg/mL (≈ 27.9 µM); MIC (Pseudomonas aeruginosa [25]): 3.12 µg/mL (≈ 6.96 µM) |
